Laboratory results as given in patent US6358885B1, “Substituted phenylheterocyclic herbicides” (Mississippi State University, priority 1992, dated 2002).

How the values were obtained:
blackgrass [1] = assay: Test C preemergence/postemergence greenhouse plant response rating 0 to 100; assay type: in vivo, Alopecurus myosuroides; conditions: POSTEMERGENCE
How it was run: (§1)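 Compounds in non-phytotoxic solvent went onto sandy loam before emergence (seeded one day earlier) or onto plants at the one-to-four leaf stage. Duck salad was treated via flood water (~2.5 cm, maintained) over silt loam.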

bedstraw [2] = assay: Test B preemergence/postemergence greenhouse plant response rating 0 to 10; assay type: in vivo, Galium aparine; conditions: 0 to 10 scale
How it was run: (§2)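 Both application timings were run together: seeds got compound preemergence, and established seedlings (two to eighteen cm) got it postemergence. Non-phytotoxic solvent carried the chemical. Ratings are visual, versus controls, at twelve to sixteen days.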

ryegrass = assay: Test C preemergence/postemergence greenhouse plant response rating 0 to 100; assay type: in vivo, Lolium multiflorum; conditions: POSTEMERGENCE
How it was run: as §1

rice = assay: Test B preemergence/postemergence greenhouse plant response rating 0 to 10; assay type: in vivo, Oryza sativa; conditions: 0 to 10 scale
How it was run: as §2

wheat = assay: as above; assay type: in vivo, Triticum aestivum; conditions: 0 to 10 scale
How it was run: as §2

sorghum [3] = assay: Test C preemergence/postemergence greenhouse plant response rating 0 to 100; assay type: in vivo, Sorghum bicolor; conditions: POSTEMERGENCE
How it was run: as §1

blackgrass [4] = assay: Test B preemergence/postemergence greenhouse plant response rating 0 to 10; assay type: in vivo, Alopecurus myosuroides; conditions: 0 to 10 scale
How it was run: as §2

cheatgrass = assay: as above; assay type: in vivo, Bromus secalinus; conditions: 0 to 10 scale
How it was run: as §2

sorghum [5] = assay: as above; assay type: in vivo, Sorghum bicolor; conditions: 0 to 10 scale
How it was run: as §2

pigweed = assay: Test C preemergence/postemergence greenhouse plant response rating 0 to 100; assay type: in vivo, Amaranthusretroflexus; conditions: POSTEMERGENCE
How it was run: as §1

bedstraw [6] = assay: as above; assay type: in vivo, Galium aparine; conditions: POSTEMERGENCE
How it was run: as §1

wild buckwheat = assay: as above; assay type: in vivo, Polygonum convolvulus; conditions: POSTEMERGENCE
How it was run: as §1

rape = assay: Test B preemergence/postemergence greenhouse plant response rating 0 to 10; assay type: in vivo, Brassica napus; conditions: 0 to 10 scale
How it was run: as §2

barley [7] = assay: as above; assay type: in vivo, Hordeum vulgare; conditions: 0 to 10 scale
How it was run: as §2

barley [8] = assay: Test C preemergence/postemergence greenhouse plant response rating 0 to 100; assay type: in vivo, Hordeum vulgare; conditions: POSTEMERGENCE
How it was run: as §1

duck salad = assay: Test C flood test plant response rating 0 to 100; assay type: in vivo, Heteranthera limosa
How it was run: as §1

cotton = assay: Test B preemergence/postemergence greenhouse plant response rating 0 to 10; assay type: in vivo, Gossypium hirsutum; conditions: 0 to 10 scale
How it was run: as §2

sugar beet = assay: Test C preemergence/postemergence greenhouse plant response rating 0 to 100; assay type: in vivo, Beta vulgaris; conditions: POSTEMERGENCE
How it was run: as §1

COCN1C(=O)COc2cc(F)c(-c3nn4c(c3Br)CCCC4)cc21 [Compound 67]
Plant response rating, Blackgrass (blackgrass [1]; 62 g/ha, 0 to 100 scale): 60
Plant response rating (0 to 100), Blackgrass (blackgrass [1]; Rate 1 g/ha): 30
Plant response rating (0 to 100), Blackgrass (blackgrass [1]; Rate 4 g/ha): 40
Plant response rating (0 to 100), Blackgrass (blackgrass [1]; Rate 16 g/ha): 50
Plant response rating, Bedstraw (bedstraw [2]; POSTEMERGENCE, Rate 10 g/ha): 8
Plant response rating, Bedstraw (bedstraw [2]; POSTEMERGENCE, Rate 50 g/ha): 10
Plant response rating, Bedstraw (bedstraw [2]; PREEMERGENCE, Rate 10 g/ha): 0
Plant response rating, Bedstraw (bedstraw [2]; PREEMERGENCE, Rate 50 g/ha): 3
Plant response rating Ryegrass (ryegrass; 62 g/ha, 0 to 100 scale): 60
Plant response rating (0 to 100), Ryegrass (ryegrass; Rate 1 g/ha): 20
Plant response rating (0 to 100), Ryegrass (ryegrass; Rate 4 g/ha): 40
Plant response rating (0 to 100), Ryegrass (ryegrass; Rate 16 g/ha): 50
Plant response rating, Rice (rice; POSTEMERGENCE, Rate 10 g/ha): 6
Plant response rating, Rice (rice; POSTEMERGENCE, Rate 50 g/ha): 7
Plant response rating, Rice (rice; PREEMERGENCE, Rate 50 g/ha): 0
Plant response rating, Wheat (wheat; POSTEMERGENCE, Rate 10 g/ha): 5
Plant response rating, Wheat (wheat; POSTEMERGENCE, Rate 50 g/ha): 6
Plant response rating, Wheat (wheat; PREEMERGENCE, Rate 50 g/ha): 0
Plant response rating, Sorghum (sorghum [3]; 62 g/ha, 0 to 100 scale): 60
Plant response rating (0 to 100), Sorghum (sorghum [3]; Rate 1 g/ha): 20
Plant response rating (0 to 100), Sorghum (sorghum [3]; Rate 4 g/ha): 30
Plant response rating (0 to 100), Sorghum (sorghum [3]; Rate 16 g/ha): 40
Plant response rating, Blackgrass (blackgrass [4]; POSTEMERGENCE, Rate 10 g/ha): 4
Plant response rating, Blackgrass (blackgrass [4]; POSTEMERGENCE, Rate 50 g/ha): 5
Plant response rating, Blackgrass (blackgrass [4]; PREEMERGENCE, Rate 10 g/ha): 3
Plant response rating, Blackgrass (blackgrass [4]; PREEMERGENCE, Rate 50 g/ha): 8
Plant response rating, Cheatgrass (cheatgrass; POSTEMERGENCE, Rate 10 g/ha): 5
Plant response rating, Cheatgrass (cheatgrass; POSTEMERGENCE, Rate 50 g/ha): 6
Plant response rating, Cheatgrass (cheatgrass; PREEMERGENCE, Rate 10 g/ha): 2
Plant response rating, Cheatgrass (cheatgrass; PREEMERGENCE, Rate 50 g/ha): 6
Plant response rating, Sorghum (sorghum [5]; POSTEMERGENCE, Rate 10 g/ha): 5
Plant response rating, Sorghum (sorghum [5]; POSTEMERGENCE, Rate 50 g/ha): 6
Plant response rating, Sorghum (sorghum [5]; PREEMERGENCE, Rate 50 g/ha): 2
Plant response rating Pigweed (pigweed; 62 g/ha, 0 to 100 scale): 100
Plant response rating (0 to 100), Pigweed (pigweed; Rate 4 g/ha): 70
Plant response rating (0 to 100), Pigweed (pigweed; Rate 16 g/ha): 100
Plant response rating, Bedstraw (bedstraw [6]; 62 g/ha, 0 to 100 scale): 80
Plant response rating (0 to 100), Bedstraw (bedstraw [6]; Rate 1 g/ha): 40
Plant response rating (0 to 100), Bedstraw (bedstraw [6]; Rate 4 g/ha): 70
Plant response rating (0 to 100), Bedstraw (bedstraw [6]; Rate 16 g/ha): 80
Plant response rating, Wild buckwheat (wild buckwheat; 62 g/ha, 0 to 100 scale): 100
Plant response rating (0 to 100), Wild buckwheat (wild buckwheat; Rate 4 g/ha): 70
Plant response rating (0 to 100), Wild buckwheat (wild buckwheat; Rate 16 g/ha): 100
Plant response rating, Rape (rape; POSTEMERGENCE, Rate 10 g/ha): 9
Plant response rating, Rape (rape; POSTEMERGENCE, Rate 50 g/ha): 10
Plant response rating, Rape (rape; PREEMERGENCE, Rate 50 g/ha): 3
Plant response rating, Barley (barley [7]; POSTEMERGENCE, Rate 10 g/ha): 4
Plant response rating, Barley (barley [7]; POSTEMERGENCE, Rate 50 g/ha): 6
Plant response rating, Barley (barley [7]; PREEMERGENCE, Rate 10 g/ha): 0
Plant response rating, Barley (barley [7]; PREEMERGENCE, Rate 50 g/ha): 2
Plant response rating Barley Igri (barley [8]; 62 g/ha, 0 to 100 scale): 50
Plant response rating (0 to 100), Barley Igri (barley [8]; Rate 1 g/ha): 20
Plant response rating (0 to 100), Barley Igri (barley [8]; Rate 4 g/ha): 30
Plant response rating (0 to 100), Barley Igri (barley [8]; Rate 16 g/ha): 30
Plant response rating (0 to 100), Duck salad (duck salad; POSTEMERGENCE section, flood test, Rate 1 g/ha): 0
Plant response rating (0 to 100), Duck salad (duck salad; POSTEMERGENCE section, flood test, Rate 4 g/ha): 0
Plant response rating (0 to 100), Duck salad (duck salad; Rate 16 g/ha, under POSTEMERGENCE head (flood test species)): 0
Plant response rating Duck salad (duck salad; flood test species listed under POSTEMERGENCE, 62 g/ha, 0 to 100 scale): 10
Plant response rating, Cotton (cotton; POSTEMERGENCE, Rate 10 g/ha): 10
Plant response rating, Cotton (cotton; POSTEMERGENCE, Rate 50 g/ha): 10
Plant response rating, Cotton (cotton; PREEMERGENCE, Rate 10 g/ha): 0
Plant response rating, Cotton (cotton; PREEMERGENCE, Rate 50 g/ha): 1
Plant response rating, Sugar beet (sugar beet; 62 g/ha, 0 to 100 scale): 100
Plant response rating (0 to 100), Sugar beet (sugar beet; Rate 1 g/ha): 100
Plant response rating (0 to 100), Sugar beet (sugar beet; Rate 4 g/ha): 100
Plant response rating (0 to 100), Sugar beet (sugar beet; Rate 16 g/ha): 100
